Source: paper PMC10786919, “Design-rules for stapled peptides with in vivo activity and their application to Mdm2/X antagonists” (Nature Communications, 2024)
Positions of bridges follow the written chain, without caps; N, C: chain ends. Non-standard residues stand in square brackets, D forms with d. Residues, ends and D or L forms follow the SMILES beside them. tBuAla = CC(C)(C)C[C@H](N)C(=O)O; R8 = C=CCCCCCC[C@@](C)(N)C(=O)O; R5 = C=CCCC[C@@](C)(N)C(=O)O; S5 = C=CCCC[C@](C)(N)C(=O)O; Ahx = NCCCCCC(=O)O

What was measured:
Assay type in all cases: cell-based
[1] = tested on: Jump-In T-REx CHO-K1 BLA cells; experiment: cells; conditions: 0% FBS 4Hr; for EC50: read-out: TETCHO: Counterscreen EC50
Experimental: This assay was based on Jump-In™ T-REx™ CHO-K1 BLA cells containing a stably integrated β-lactamase under the control of an inducible cytomegalovirus (CMV) promoter. Cells were maintained in Dulbecco’s […] Eagle Medium (DMEM) with 10% fetal bovine serum (FBS), Blasticidin, and Penicillin/Streptomycin and then transferred to 1.5 ml freezing vials and stored under liquid nitrogen in growth media containing 5% DMSO. […] Cells were seeded into a 384-well plate at a density of 4000 cells per well. Peptides were then dispensed to each well using a liquid handler, ECHO 555 and incubated for 16 h. The final working concentration of DMSO was 0.5%. β-lactamase activity was detected using the ToxBLAzer Dual Screen (Invitrogen), as per the manufacturer’s instructions. Measurements were carried out using the Envision multiplate reader (Perkin–Elmer). Counterscreen activity was defined as the amount of β-lactamase activity induced by tetracycline. Measurements were taken a minimum of three times (biological replicates) and values are reported as geometric means of the replicates.

[2] = tested on: p53 responsive β-lactamase reporter in HCT116 cells; experiment: cells; conditions: 0% FBS 4Hr; read-out: p53 reporter assay EC50
Summary of the method: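 HCT116 cells stably carrying a p53-responsive β-lactamase reporter, seeded at 8000 cells/well, with 0.5% DMSO final. Reporter activity read by ToxBLAzer Dual Screen. Values are geometric means of at least three biological replicates.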

[3] = tested on: HCT116 cells; experiment: Lactate dehydrogenase (LDH) release assay
Summary of the method: (§1)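 Geometric means of at least three independent biological runs are given for LDH release measured in HCT116 cells stably expressing a p53-driven β-lactamase reporter. Plating density was 8000 cells/well; DMSO in wells was 0.5%.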

[4] = Lactate dehydrogenase (LDH) release assay; conditions: LDH: Cytotoxicity assay EC50
Summary of the method: as §1

Q: Which results are given for `CC(=O)N[C@H](C(=O)N[C@@H](CO)C(=O)N[C@@H](Cc1ccccc1)C(=O)N[C@]1(C)CCCC=CCCC[C@](C)(C(=O)N[C@@H](CC(C)C)C(=O)N[C@@H](CC(C)C)C(=O)N[C@@H](CO)C(=O)N[C@@H](CCC(=O)O)C(=O)N[C@@H](CC(N)=O)C(=O)N[C@@H](Cc2ccccc2)C(N)=O)NC(=O)[C@H](Cc2c[nH]c3ccccc23)NC(=O)[C@H](Cc2ccc(O)cc2)NC(=O)[C@H](CCC(=O)O)NC1=O)[C@@H](C)O` [MP-167] (Ac-TSF[R5]EYW[R5]LLSENF-NH2; staple 4-8)?
A: TETCHO: Counterscreen % Effect [1]: 22.82%; EC50 [1]: 12.1 µM; EC50 [2]: 8.78 µM; LDH: Cytotoxicity assay % Effect [3]: 34.73%; EC50 [4]: 26 µM

Q: Which “TETCHO: Counterscreen % Effect” value [1] does the source give for `CC(=O)N[C@@H](CCCCN)C(=O)N[C@@H](CCCCN)C(=O)N[C@H](C(=O)N[C@@H](CO)C(=O)N[C@@H](Cc1ccccc1)C(=O)N[C@]1(C)CCCCCCC=CCCC[C@@](C)(C(=O)N[C@@H](CCC(=O)O)C(N)=O)NC(=O)[C@H](CC(C)(C)C)NC(=O)[C@H](CC(C)C)NC(=O)[C@H](C)NC(=O)[C@H](Cc2c[nH]c3ccccc23)NC(=O)[C@H](Cc2ccc(O)cc2)NC(=O)[C@H](CCC(=O)O)NC1=O)[C@@H](C)O` [MP-1159] (Ac-KKTSF[R8]EYWAL[tBuAla][S5]E-NH2; staple 6-13) here?
A: The value was 44.44%.

Q: What about the EC50 [1] of the same compound?
A: Its EC50 is 49.2 µM.

Q: What about the EC50 [2] of the same compound?
A: Its EC50 is 5.08 µM.

Q: What about the “LDH: Cytotoxicity assay % Effect” value [3] of the same compound?
A: The value was -1.606%.

Q: What about the EC50 [4] of the same compound?
A: The EC50 was over 50 µM.

Q: For `CC(=O)N[C@H](C(=O)N[C@@H](CO)C(=O)N[C@@H](Cc1ccccc1)C(=O)N[C@]1(C)CCCCCCC=CCCC[C@@](C)(C(=O)N[C@@H](CCC(=O)O)C(=O)N[C@@H](CC(N)=O)C(=O)N[C@@H](Cc2ccccc2)C(N)=O)NC(=O)[C@H](CC(C)C)NC(=O)[C@H](CC(C)C)NC(=O)[C@H](C)NC(=O)[C@H](Cc2c[nH]c3ccccc23)NC(=O)[C@H](Cc2ccc(O)cc2)NC(=O)[C@H](CCC(=O)O)NC1=O)[C@@H](C)O` [MP-1169], which “TETCHO: Counterscreen % Effect” value [1] is on record?
A: The value was 11.25%.

Q: And the EC50 [1]?
A: Its EC50 is over 50 µM.

Q: What about the EC50 [2] of the same compound?
A: The EC50 was 5.34 µM.

Q: What about the “LDH: Cytotoxicity assay % Effect” value [3] of the same compound?
A: The value was 37.3%.

Q: What about the EC50 [4] of the same compound?
A: Its EC50 is 34.1 µM.

Q: With `CC(=O)N[C@H](C(=O)N[C@@H](CO)C(=O)N[C@@H](Cc1ccccc1)C(=O)N[C@]1(C)CCCCCCC=CCCC[C@@](C)(C(=O)N[C@@H](CCC(=O)O)C(=O)N[C@@H](CC(N)=O)C(=O)N[C@@H](Cc2ccc(O)cc2)C(N)=O)NC(=O)[C@H](CC(C)C)NC(=O)[C@H](CC(C)C)NC(=O)[C@H](C)NC(=O)[C@H](Cc2c[nH]c3ccccc23)NC(=O)[C@H](Cc2ccc(O)cc2)NC(=O)[C@H](CCC(=O)O)NC1=O)[C@@H](C)O` [MP-1170] as the compound, how does the “TETCHO: Counterscreen % Effect” value [1] read?
A: The value was 61.75%.

Q: What about the EC50 [1] of the same compound?
A: Its EC50 is 36.8 µM.

Q: And the EC50 [2]?
A: The EC50 was 16.7 µM.

Q: What about the “LDH: Cytotoxicity assay % Effect” value [3] of the same compound?
A: Its value is 6.762%.

Q: What about the EC50 [4] of the same compound?
A: Its EC50 is over 50 µM.

Q: What does the source list for `CC(=O)N[C@H](C(=O)N[C@@H](CO)C(=O)N[C@@H](Cc1ccccc1)C(=O)N[C@]1(C)CCCC=CCCC[C@](C)(C(=O)N[C@@H](CC(C)C)C(=O)N[C@@H](CC(C)C)C(=O)N2CCC[C@H]2C(=O)N[C@@H](CCC(N)=O)C(=O)N[C@@H](CC(N)=O)C(=O)N[C@@H](Cc2ccccc2)C(N)=O)NC(=O)[C@H](Cc2c[nH]c3ccccc23)NC(=O)[C@H](Cc2ccc(O)cc2)NC(=O)[C@H](CCC(=O)O)NC1=O)[C@@H](C)O` [MP-1173] (Ac-TSF[R5]EYW[R5]LLPQNF-NH2; staple 4-8)?
A: TETCHO: Counterscreen % Effect [1]: 47.5%; EC50 [1]: 28.3 µM; EC50 [2]: 12.5 µM; LDH: Cytotoxicity assay % Effect [3]: 16.65%; EC50 [4]: > 50 µM

Q: Which “TETCHO: Counterscreen % Effect” value [1] does the source give for `CC(=O)N[C@H](C(=O)N[C@@H](CO)C(=O)N[C@@H](Cc1ccccc1)C(=O)N[C@]1(C)CCCC=CCCC[C@](C)(C(=O)N[C@@H](CC(C)C)C(=O)N[C@@H](CC(C)C)C(=O)N2CCC[C@H]2C(N)=O)NC(=O)[C@H](Cc2c[nH]c3ccccc23)NC(=O)[C@H](Cc2ccc(O)cc2)NC(=O)[C@H](CCC(=O)O)NC1=O)[C@@H](C)O` [MP-1174] (Ac-TSF[R5]EYW[R5]LLP-NH2; staple 4-8) here?
A: Its value is 7.183%.

Q: What about the EC50 [1] of the same compound?
A: Its EC50 is over 50 µM.

Q: And the EC50 [2]?
A: Its EC50 is 18.7 µM.

Q: And the “LDH: Cytotoxicity assay % Effect” value [3]?
A: Its value is 2.374%.

Q: What about the EC50 [4] of the same compound?
A: The EC50 was over 50 µM.

Q: With `CC(=O)N[C@H](C(=O)N[C@@H](CO)C(=O)N[C@@H](Cc1ccccc1)C(=O)NC(C)(C)C(=O)N[C@@H](CCC(=O)O)C(=O)N[C@@H](Cc1ccc(O)cc1)C(=O)N[C@@H](Cc1c[nH]c2ccccc12)C(=O)N[C@@H](C)C(=O)N[C@@H](CC(C)C)C(=O)N[C@@H](CC(C)C)C(=O)NC(C)(C)C(=O)N[C@@H](CCC(=O)O)C(N)=O)[C@@H](C)O` [MP-1176] as the compound, how does the “TETCHO: Counterscreen % Effect” value [1] read?
A: The value was -0.7808%.

Q: And the EC50 [1]?
A: The EC50 was over 50 µM.

Q: What about the EC50 [2] of the same compound?
A: The EC50 was over 50 µM.

Q: And the “LDH: Cytotoxicity assay % Effect” value [3]?
A: Its value is 12.95%.

Q: What about the EC50 [4] of the same compound?
A: The EC50 was over 50 µM.

Q: With `CC(=O)N[C@@H](CCCNC(=N)N)C(=O)N[C@@H](CCCNC(=N)N)C(=O)N[C@@H](CCCNC(=N)N)C(=O)NCCCCCC(=O)N[C@H](C(=O)N[C@@H](CO)C(=O)N[C@@H](Cc1ccccc1)C(=O)N[C@]1(C)CCCCCCC=CCCC[C@@](C)(C(N)=O)NC(=O)[C@H](CC(C)C)NC(=O)[C@H](CC(C)C)NC(=O)[C@H](C)NC(=O)[C@H](Cc2c[nH]c3ccccc23)NC(=O)[C@H](Cc2ccc(O)cc2)NC(=O)[C@H](CCC(=O)O)NC1=O)[C@@H](C)O` [MP-1177] as the compound, how does the “TETCHO: Counterscreen % Effect” value [1] read?
A: Its value is 50.69%.

Q: What about the EC50 [1] of the same compound?
A: Its EC50 is 17.6 µM.

Q: And the EC50 [2]?
A: The EC50 was 8.42 µM.

Q: What about the “LDH: Cytotoxicity assay % Effect” value [3] of the same compound?
A: Its value is 51.96%.

Q: And the EC50 [4]?
A: The EC50 was 31.8 µM.

Q: Which “TETCHO: Counterscreen % Effect” value [1] does the source give for `CC(=O)N[C@@H](CCCNC(=N)N)C(=O)N[C@@H](CCCNC(=N)N)C(=O)N[C@@H](CCCNC(=N)N)C(=O)NCCCCCC(=O)N[C@H](C(=O)N[C@@H](CO)C(=O)N[C@@H](Cc1ccccc1)C(=O)N[C@]1(C)CCCCCCC=CCCC[C@@](C)(C(=O)N[C@@H](CCC(=O)O)C(=O)N[C@@H](CC(N)=O)C(=O)N[C@@H](Cc2ccccc2)C(N)=O)NC(=O)[C@H](CC(C)C)NC(=O)[C@H](CC(C)C)NC(=O)[C@H](C)NC(=O)[C@H](Cc2c[nH]c3ccccc23)NC(=O)[C@H](Cc2ccc(O)cc2)NC(=O)[C@H](CCC(=O)O)NC1=O)[C@@H](C)O` [MP-2009] (Ac-RRR[Ahx]TSF[R8]EYWALL[S5]ENF-NH2; staple 8-15) here?
A: The value was 68.36%.

Q: What about the EC50 [1] of the same compound?
A: The EC50 was 16.6 µM.

Q: What about the EC50 [2] of the same compound?
A: Its EC50 is 9.74 µM.

Q: And the “LDH: Cytotoxicity assay % Effect” value [3]?
A: The value was 32.46%.

Q: And the EC50 [4]?
A: The EC50 was over 50 µM.
